According to US20150359731A1, “PHYLLANTHUS ACIDUS EXTRACTS AND METHODS OF USE” (AVON PRODUCTS, INC, priority 2013, published 2015):

System: dorsal forearm skin of healthy female Caucasian subjects with mild to moderate photo damage
Test: In vivo biopsy, histology of treated dorsal forearm skin
Set-up: species or system human
Settings: 3 weeks semi-occlusion patch, 2 mg/cm^2, extract 0.33%, retinol 0.05% active
Method: Healthy female Caucasian subjects aged 30-65, with skin type II or III and mild to moderate photo damage, were treated on the dorsal forearm for 3 weeks (3 consecutive rounds of 5×24 hour) under semi-occlusion patches. Test articles including active ingredients, vehicle controls, and retinol were applied in a randomized allocation on 6 sites on each forearm. The application dose was 2 mg/cm^2. After 3 week treatment, a 2 mm punch biopsy was obtained from each treatment site and fixed in 10% buffered formalin. Tissue samples then embedded in paraffin, sectioned (5 μm thickness), and stained for skin markers after re-hydration. […] Retinol at a active concentration of 0.05% was used a positive control. Retinol use at a 0.05% active concentration in the semi-occlusion patch vehicle formulation yielded a visual score of approximately 0.56 out of a 4 point scale in HE staining (measuring hematoxylin and eosin staining, an indication of viable epidermal thickness and health) with 63.6% of the subjects showing an improvement; a visual score of 0.6 out of a 4 point scale in M-TC staining (Masson's trichrome staining, assessing total mature fiber-forming collagen in the dermis—mainly Collagen I, […] and Collagen V) with 51.6% of the subjects showing an improvement; a visual score of 0.52 out of a 4 point scale for pro-Col (measuring new synthesis of Collagen I by skin fibroblasts in the dermis) with 51.6% of the subjects showing an improvement; and a visual score of 0.57 out of a 4 point scale for HA (measuring level of hyaluronic acid in both dermis and epidermis) with 50% of the subjects showing an improvement.

Compound: CC1=C(/C=C/C(C)=C/C=C/C(C)=C/CO)C(C)(C)CCC1 [Retinol]
- subjects showing an improvement, HA: 50%
- subjects showing an improvement, HE staining: 63.6%
- subjects showing an improvement, M-TC staining: 51.6%
- subjects showing an improvement, pro-Col: 51.6%
- visual score for HA (level of hyaluronic acid in both dermis and epidermis) (out of a 4 point scale): 0.57
- visual score for pro-Col (new synthesis of Collagen I by skin fibroblasts in the dermis) (out of a 4 point scale): 0.52
- visual score in HE staining (viable epidermal thickness and health) (out of a 4 point scale): approximately 0.56
- visual score in M-TC staining (total mature fiber-forming collagen in the dermis) (out of a 4 point scale): 0.6
